Measurements from patent US8048924B2, “Methods and compositions employing 4-aminophenylacetic acid compounds” (Biocon Limited, priority 2001, dated 2011).
Entries after “also recorded” stand apart in the source; their conditions may differ.

How the values were obtained:
[1] = test system: Clostridium difficile toxin A-induced colitis; assay: Toxin A-induced colitis, chronic oral administration in drinking water for 5 days; type: in vivo, Sprague-Dawley rats; conditions: for doses that significantly inhibited toxin A-induced colitis: chronically for 5 days in drinking water, doses tested 1-100; for potency relative to sulfasalazine for inhibiting toxin A-induced colitis: chronic oral, dose-response studies
Method: Eighteen adult male Sprague-Dawley rats weighing 175-222 grams were divided into 3 groups each consisting of 6 animals: • 4-APAA (AA-002) 100 mg/kg orally+Toxin A (10 μg) injected into the lumen of the colon • Vehicle (DW) orally+Toxin A (10 μg) injected into the lumen of the colon • Vehicle (DW) orally
Following 5 days of 4-APAA administration in drinking water, both ketamine (67 mg/kg) and xylazine (33 mg/kg) were administered, an isolated colonic segment was surgically created, and 10 μg of Clostridium difficile toxin A was injected into the lumen of the colon. After 3 hours, the rats were euthanized and colonic inflammation was assessed by quantitating luminal fluid accumulation and myeloperoxidase (MPO) content in the colon tissue. In addition, histological evaluation of the treated colon segments was completed.
Drug Administration. In studies using chronic administration, sulfasalazine, APAZA™, and 4-APAA were administered in the drinking water at doses ranging from 0.1-100 mg/kg·d for 5 days. Sulfasalazine and APAZA™ were initially dissolved in 0.1 N NaOH at 30 times the desired final concentration and then the pH was adjusted to 8.5 with 1 N HCl and the solution was diluted 30-fold with distilled water. 4-APAA was dissolved in water. On the fifth day, the rats were fasted overnight (with access to their drinking water±sulfasalazine, APAZA™, or 4-APAA ad lib), anesthetized, and isolated colonic segments were surgically created as described below. In studies using acute administration, the rats were pretreated by injection of 4-APAA at doses of 10 or 100 μg in 200 μl of PBS (pH 7.4) into the lumen of the colonic segment using a 27 ga syringe needle. Toxin A (10 μg) in 200 μl of PBS (pH 7.4) was tested alone or injected into the lumen of the colonic segment 30 minutes after 4-APAA using a 27 ga syringe needle.
Surgery. Isolated colonic segments were created in male Sprague-Dawley rats (150-175 g) as described previously for isolated ileal segments (see, Gastroenterol. 111: 1272-1280 (1996) and Proc. Natl. Acad. Sci. USA 91: 947-951 (1994). Rats fasted overnight with free access to drinking water were anesthetized by intramuscular injection of 67 mg/kg ketamine:33 mg/kg xylazine. A midline abdominal incision was made and colonic segments 5 cm in length were created by ligation with 4-0 silk sutures, taking care not to disturb the vascular supply. Toxin A (10 μg) in 400 μl of PBS (pH 7.4) was injected into the lumen of the colonic segment using a 27 ga syringe needle. Control rats were prepared similarly and their colonic segments were injected with the vehicles. The midline incision was then closed with a running suture, and the rats were placed on a heating pad at 37° C. for 3 hours. After 3 hours, the rats were euthanized and samples of the treated colonic segments were taken for analysis in vitro.
Histopathology. The severity of colonic histological damage was assessed using formalin-fixed, paraffin-embedded, H&E-stained sections.
Luminal Fluid Accumulation. Luminal fluid accumulation was measured gravimetrically. After 3 hours of treatment, the isolated colonic segments were removed, weighed, and their lengths were measured. Luminal fluid accumulation is expressed as mg wet weight per cm length.
Myeloperoxidase Activity. Myeloperoxidase (MPO) activity was measured as described previously (see, J. Invest. Dermatol. 78: 206-209 (1982)). Briefly, pieces of control and treated colonic segments were homogenized in 0.5% hexadecyltrimethylammonium bromide in 50 mM KH2PO4 (pH 6), freeze/thawed three times, centrifuged at 4° C. for 2 minutes, and then the absorbance of each supernatant was read at 460 nm at 0, 30, and 60 seconds after the addition of 2.9 ml of o-dianisidine dihydrochloride to 0.1 ml supernatant. The maximal change in absorbance per minute was used to calculate the units of MPO activity based on the molar absorbency index of oxidized o-dianisidine of 1.13×10^4 M^−1 cm^−1. […]

[2] = Single oral dose plasma pharmacokinetics and elimination of APAZA and metabolites in mice; type: in vivo, male CD-1 mice
Method: Initial single dose pharmacokinetic studies with the APAZA™ compound have been conducted in dogs and mice. A study was completed in order to determine the plasma pharmacokinetics and elimination of the APAZA™ compound and its metabolites (5-ASA, 4-APAA, 5-aceASA and 4-aceAPAA) following single oral dose administration to male CD-1 mice. […] When normalized to molar values, the Cmax values for all the APAZA™ metabolites were less than APAZA™; the values ranged from 2.68 to 13.8 μM. However, the normalized APAZA™ AUC∞ value was not greater than all the other metabolites; these values ranged from […]. […] The Tmax values for APAZA™ and its metabolites were 1 hour and 4 hours, respectively.

[3] = Metabolism of APAZA and sulfasalazine following oral delivery to rats (urine and feces, HPLC); conditions: rat
Method: The degradation of the APAZA™ therapeutic agent (5-(4-carboxymethyl-phenylazo)-2-hydroxy-benzoic acid), and sulfasalazine (used as a control) and the generation of their metabolites when these compounds were orally dosed to rats were measured to be able to confirm that both the APAZA™ therapeutic agent and sulfasalazine undergo bacterial azo reduction and yield their metabolites, 5-aniinosalicylic acid (5-ASA) and sulfapyridine for sulfasalazine, 5-aminosalicylic acid (5-ASA) and 4-aminophenyl acetic acid (4-APAA) for the APAZA™ therapeutic agent.
This experiment was performed to confirm that an azo compound, the APAZA™ therapeutic agent, undergoes a bacterial reduction process and yields its metabolites in in-vivo metabolism. The quantification of its metabolites was also carried out. Sulfasalazine, not part of the present invention, was used as a control since similar azo bond cleavage by bacteria occurs with it, which results in 5-aminosalicylic acid and sulfapyridine as its metabolites. Both the APAZA™ therapeutic agent and sulfasalzine were degraded and their metabolites were produced as expected.
A total of 8 rats were used for the experiment and methylcellulose was used as a vehicle. The dosage amount was 100 mg/kg per rat. […] Both urine and feces were collected over 4 days and analyzed by HPLC. […]

[4] = 100 mg/kg·day in drinking water, 5 days
[5] = 100 mg/kg·day in drinking water, 5 days, toxin A 10 μg
[6] = 0.5 mg/kg·day in drinking water, 5 days
[7] = 1 mg/kg·day in drinking water, 5 days
[8] = 10 mg/kg·day in drinking water, 5 days

Q: Which results are given for Nc1ccc(CC(=O)O)cc1 [4-APAA, (4-aminophenyl)-acetic acid]?
A: toxin A-induced MPO activity, significance of inhibition [1, 4]: significantly inhibited; toxin A-induced luminal fluid accumulation, significance of inhibition [1, 4]: significantly inhibited; toxin A-induced structural damage of the colon (H&E) [1, 4]: protected the structural integrity; also recorded: strongly protected; percent inhibition of toxin A-induced MPO activity [1, 5]: 89±8%; percent inhibition of toxin A-induced luminal fluid accumulation [1, 5]: 84±6%; doses that significantly inhibited toxin A-induced colitis [1]: 100 mg/kg·day; plasma concentration at 24 hours ([2]; single oral dose of APAZA, male CD-1 mice): below the limit of detection

Q: With Nc1ccc(O)c(C(=O)O)c1 [5-ASA, 5-amino-2-hydroxy-benzoic acid, reference compound] as the compound, how does the “conversion of 5-ASA in vivo” value [3] read?
A: quickly converted to acetylated 5-ASA

Q: For O=C(O)Cc1ccc(/N=N/c2ccc(O)c(C(=O)O)c2)cc1 [APAZA™, 5-(4-carboxymethyl-phenylazo)-2-hydroxy-benzoic acid], which “toxin A-induced structural damage of the colon (H&E)” value (“toxin A-induced structural damage” below) ([1]; 0.1 mg/kg·day in drinking water, 5 days) is on record?
A: little if any protective effect

Q: And the “toxin A-induced luminal fluid accumulation, significance of inhibition” value [1, 6]?
A: significantly inhibited

Q: What about the “toxin A-induced structural damage” value [1, 6] of the same compound?
A: partially protected

Q: What about the “toxin A-induced MPO activity, significance of inhibition” value [1, 7] of the same compound?
A: significantly inhibited

Q: What about the “toxin A-induced luminal fluid accumulation, significance of inhibition” value [1, 7] of the same compound?
A: significantly inhibited

Q: And the “toxin A-induced structural damage” value [1, 7]?
A: strongly protected

Q: And the “toxin A-induced MPO activity, significance of inhibition” value [1, 8]?
A: significantly inhibited

Q: What about the “toxin A-induced luminal fluid accumulation, significance of inhibition” value [1, 8] of the same compound?
A: significantly inhibited

Q: What about the “toxin A-induced structural damage” value [1, 8] of the same compound?
A: strongly protected

Q: And the “toxin A-induced MPO activity, significance of inhibition” value [1, 4]?
A: significantly inhibited

Q: And the “toxin A-induced luminal fluid accumulation, significance of inhibition” value [1, 4]?
A: significantly inhibited

Q: And the “toxin A-induced structural damage” value [1, 4]?
A: strongly protected

Q: What about the “potency relative to sulfasalazine for inhibiting toxin A-induced colitis” value [1] of the same compound?
A: 10-20 fold

Q: What about the “potency relative to sulfasalazine for inhibiting toxin A-induced colitis” value ([1]; listed as APAZA™ compound) of the same compound?
A: 10-100 fold

Q: What about the “doses that significantly inhibited toxin A-induced colitis” value [1] of the same compound?
A: 1-100 mg/kg·day

Q: And the AUC(0-inf) ([2]; male, CD-1, mouse, in vivo, po)?
A: 7430 ng·h/mL

Q: What about the Cmax ([2]; male, CD-1, mouse, in vivo, po) of the same compound?
A: 5930 ng/mL

Q: And the Tmax ([2]; male, CD-1, mouse, in vivo, po)?
A: 1 h

Q: And the half-life ([2]; male, CD-1, mouse, in vivo, po)?
A: 3.34 h

Q: What about the “plasma concentration at 24 hours” value ([2]; mouse, in vivo, po) of the same compound?
A: below the limit of detection
